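A five-concentration, 48-hour dose response in 96-well plates underlies each endpoint, interpolated linearly between surrounding concentrations. At the GI50, growth is halved. The concentration for full growth arrest is given as TGI.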
Legend:
Assay in all cases: NCI tumour cell line growth inhibition, 48 h
[1] = system: A498 renal
[2] = system: BT-549 breast
[3] = system: COLO 205 colon
[4] = system: IGROV1 ovarian
[5] = system: OVCAR-8 ovarian
[6] = system: SF-295 CNS
[7] = system: SK-MEL-2 melanoma
[8] = system: UACC-62 melanoma
[9] = system: UO-31 renal
[10] = system: RXF 393 renal

SMILES	GI50 [1] [µM]	TGI [1] [µM]	GI50 [2] [µM]	TGI [2] [µM]	GI50 [3] [µM]	TGI [3] [µM]	GI50 [4] [µM]	TGI [4] [µM]	GI50 [5] [µM]	TGI [5] [µM]	GI50 [6] [µM]	TGI [6] [µM]	GI50 [7] [µM]	TGI [7] [µM]	GI50 [8] [µM]	TGI [8] [µM]	GI50 [9] [µM]	TGI [9] [µM]	TGI [10] [µM]	GI50 [10] [µM]
Cc1nc(Nc2ccccn2)sc1C(=O)/C=C/c1ccc(Cl)cc1	0.143	0.626	0.344	8.64	0.322	1.35	0.413	30.6	0.472	> 100	0.308	23	1.36	> 100	0.631	49.8	0.662	15	–	–
CCOc1c(N=Nc2ccccc2Cl)c(-c2ccccc2)nn1C(=S)S	–	–	–	> 100	–	47.5	–	> 100	–	> 100	–	> 100	–	> 100	–	> 100	–	> 100	> 100	–
Cc1nc2c(n1C)C(=O)c1ccccc1C2=O	> 100	> 100	> 100	> 100	37.4	> 100	31.3	> 100	> 100	> 100	10.8	72.3	> 100	> 100	56	> 100	77.6	> 100	–	–
CC(=O)O[C@]1(C)OC(=O)[C@@H](CC(C)C)N1[N+](=O)[O-]	–	> 100	–	–	–	> 100	–	> 100	–	> 100	–	> 100	–	> 100	–	> 100	–	> 100	> 100	–
Cc1c(-c2ccnc(N)n2)c2c(n1Cc1ccccc1)C(=O)c1ccccc1C2=O	–	–	2.99	8.4	15.5	43.9	4.84	54.7	–	–	3.12	15	11.3	47.7	> 100	> 100	3.28	21.8	38.2	11.3
O=S(=O)(NCn1ccc2ccccc21)c1ccccc1	–	> 100	–	–	–	> 100	–	> 100	–	> 100	–	> 100	–	> 100	–	> 100	–	> 100	> 100	–
CC1CCSC(N(C(=O)N(C)c2ccccc2)c2ccccc2)=N1 (stereo unspecified)	–	> 100	–	–	–	> 100	–	> 100	–	> 100	–	> 100	–	> 100	–	> 100	–	> 100	> 100	–
NNC(=O)C(=O)N/N=C1\CCC(=O)CC1C(=O)CCC(=O)Nc1ccc(Cl)cc1 (stereo unspecified)	–	> 100	–	–	–	> 100	–	> 100	–	> 100	–	> 100	–	> 100	–	> 100	–	> 100	> 100	–
C=CCC1=C(C)C[C@@H]2CCC(=O)C=C12	–	> 100	–	–	–	> 100	–	> 100	–	> 100	–	> 100	–	> 100	–	> 100	–	> 100	> 100	–
CCOC(=O)N1CCc2cc(OC)c(OC)cc2/C1=C\c1ccc(OC)c(OC)c1	–	68.5	–	–	–	59.9	–	> 100	–	92.7	–	61.2	–	67.6	–	63.4	–	69.5	54.2	–
NCCOCCOCCNc1nc(-c2ccc(Cl)cc2)nc(N2CCN(c3ccccn3)CC2)n1	1.33	7.71	4.48	21.2	–	–	2.81	7.04	4.06	30.6	2.35	6.46	–	–	1.99	3.91	2.07	5.02	5.76	2.28
Cc1c(NC(=S)NC(=O)c2ccc([N+](=O)[O-])cc2)c(=O)n(-c2ccccc2)n1C	–	> 100	–	–	–	> 100	–	> 100	–	> 100	–	> 100	–	> 100	–	> 100	–	> 100	> 100	–
CC(C)CCCC(C)[C@H]1CCC2[C@@H]3CCC4Nc5c(cnn5-c5ccccc5)C[C@]4(C)C3CC[C@@]21C (stereo partly specified)	–	> 100	–	–	–	42	–	> 100	–	> 100	–	7.46	–	> 100	–	40.4	–	50.4	8.8	–
c1ccc2c(c1)SCCCSCCSCCCS2	–	–	–	> 100	–	> 100	–	> 100	–	> 100	–	> 100	–	–	–	> 100	–	> 100	–	–
O=C(Nc1ccc(-c2nc(-c3cccc(OCCN4CCOCC4)c3)c(-c3ccnc(Br)c3)[nH]2)cc1)c1ccccc1	1.49	3.96	2.71	> 100	–	–	4.61	> 100	3.96	> 100	–	–	2.75	> 100	1.91	6.19	2	5.58	1.12	0.309
CCOC(=O)CCn1ncc(Cl)c(Cl)c1=O	–	39.6	–	–	–	25.6	–	26	–	11.9	–	34.2	–	26.4	–	19.2	–	29.3	29	–

— PubChem BioAssay (NCI)
